Data from US8703805B2 (Exelixis Patent Company LLC, priority 2005, dated 2014).

Each compound was assayed on LXRα and/or LXRβ (assay: LXR/LXRE co-transfection assay (luciferase reporter, CV-1 cells)). Details: IC50 or EC50 for LXR (LXRα and/or LXRβ, not distinguished), tested as described in Example 109, CV-1 cells.
Type: cell-based, human
Text: To measure the ability of compounds to activate or inhibit the transcriptional activity of LXR in a cell based assay, the co-transfection assay was used. It has been shown that LXR functions as a heterodimer with RXR. For the co-transfection assay; expression plasmids for LXR and RXR are introduced via transient transfection into mammalian cells along with a luciferase reporter plasmid that contains one copy of a DNA sequence that is bound by LXR-RXR heterodimers (LXRE; Willy, P. ad. 1995). Treatment of transfected cells with an LXR agonist increases the transcriptional activity of LXR, which is measured by an increase in luciferase activity.
CV-1 African Green Monkey Kidney Cells Co-transfection expression plasmids, comprising full-length LXRα (pCMX-h LXRα, LXRβ (pCMX-hLXRβ), or RXRα (pCMX-RXR), reporter plasmid (LXREx1-Tk-Luciferase), and control (pCMX-Galactosidase expression vector) (Willey et al. Genes & Development 91033-1045 (1995)). Transfection reagent such as FuGENE6 (Roche). 1× Cell lysis buffer (1% Triton X 100 (IT Baker X200-07), 10% Glycerol (JT Baker M778-07), 5 mM Ditriotreitol (Quantum Bioprobe DTT03; add fresh before lysing), 1 mM EGTA (Ethylene Glycol-bis(B-Amino ethyl ether)-N,N,N′,N′-Tetracetic Acid) (Sigma E-4378), 25 mM Tricine (ICN 807420) pH 7.8) 1× Luciferase assay buffer (pH at 7.8) (0.73 mM ATP, 22.3 mM Tricine, 0.11 mM EDTA, 33.3 mM DTT) 1× Luciferrin/CoA (11 mM Luciferin, 3.05 mM Coenzyme A, 10 mM HEPES) Preparation of Screening Reagents
CV-1 cells were prepared 24 hours prior to the experiment by plating them into T-175 flasks or 500 cm^2 dishes in order to achieve 70-80% confluency on the day of the transfection. The number of cells to be transfected was determined by the number of plates to be screened. each 384 well plate requires 1.92×10^6 cells or 5000 cells per well. DNA Transfection Reagent was prepared by mixing the required plasmid DNAs with a cationic lipid transfection reagent FuGENE6 (Roche) by following the instructions provided with the reagents. Optimal DNA amounts were determined empirically per cell line and size of vessel to be transfected. 10-12 mL of media was added to the DNA Transfection Reagent and this mixture was added to the cells after aspirating media from the T175 cm^2 flask. Cells were then incubated at least 5 hours at 37° C. to prepare screening cells.
Luciferase assay reagent was prepared by combining before use (per 10 mL): […], 0.54 mL of 1× Luciferrin/CoA; 0.54 mL of 0.2 M Magnesium sulfate
Assay plates were prepared by dispensing 5 μL of compound per well of a 384 well plate to achieve final compound concentration of 10 μM and no more than 1% DMSO. Media was removed from the screening cells, the cells trypsinized, harvested cells by centrifugation, counted, and plated at a density of approximately 5000 cells per well in the 384 well assay plate prepared above in a volume of about 45 μL. Assay plates containing both compounds and screening cells (50 μL in total volume) were incubated for 20 hours at 37° C.
After incubation with compounds, media was removed from the cells and lysis buffer (30 μL/well) added. After 30 minutes at ambient temperature, luciferase assay buffer (30 μL/well) was added and the assay plates read on a luminometer (PE Biosystems Northstar reader with on-board injectors, or equivalent). Plates were read immediately after addition of luciferase assay buffer.
The LXR/LXRE co-transfection assay can be used to establish the EC50/IC50 values for potency and percent activity or inhibition for efficacy. Efficacy defines the activity of a compound relative to a high control ((N-(3-((4-fluorophenyl)-(naphthalene-2-sulfonyl)amino)propyl)-2,2-dimethylpropionamide)) or a low control (DMSO/vehicle). The dose response curves are generated from an 8 point curve with concentrations differing by ½ LOG units. each point represents the average of 4 wells of data from a 384 well plate. […]

Compared with `O=C(O)CNC(=O)c1ccc(-c2cc(C(F)(F)F)nn2-c2ccccc2Cl)cc1` [Example 1362, N-({4-[1-(2-chlorophenyl)-3-(trifluoromethyl)-1H-pyrazol-5-yl]phenyl}carbonyl)glycine], `NS(=O)(=O)c1cccc(-c2ccc(-c3cc(C(F)(F)F)nn3-c3ccccc3Cl)cc2)c1` [Example 1137, 4′-[1-(2-chlorophenyl)-3-(trifluoromethyl)-1H-pyrazol-5-yl]biphenyl-3-sulfonamide] is lower in EC50: 1000 to 10000 nM for the first, under 1000 nM for the second.

`CC(C)S(=O)(=O)c1cccc(-c2ccc(-c3cc(C(C)(C)O)nn3-c3ccccc3Cl)s2)c1` [Example 1185, 2-[1-(2-chlorophenyl)-5-(5-{3-[(1-methylethyl)sulfonyl]phenyl}-2-thienyl)-1H-pyrazol-3-yl]propan-2-ol] and `CC(C)(O)c1cc(-c2ccc(-c3cccc(S(C)(=O)=O)c3)s2)n(-c2cccc(Cl)c2Cl)n1` [Example 1281, 2-[1-(2,3-dichlorophenyl)-5-{5-[3-(methylsulfonyl)phenyl]-2-thienyl}-1H-pyrazol-3-yl]propan-2-ol] cannot be ordered by EC50: under 1000 nM for the first, under 1000 nM for the second.

`CC(C)(O)c1cccc(-c2ccc(-c3cc(C(F)(F)F)nn3-c3ccccc3Cl)cc2)c1` [Example 1221, 2-{4′-[1-(2-chlorophenyl)-3-(trifluoromethyl)-1H-pyrazol-5-yl]biphenyl-3-yl}propan-2-ol] and `CC(C)(O)c1cccc(-c2ccc(-c3cc(C(F)(F)F)nn3-c3c(Cl)cccc3Cl)c(Cl)c2)c1` [Example 1395, 2-(3′-chloro-4′-(1-(2,6-dichlorophenyl)-3-(trifluoromethyl)-1H-pyrazol-5-yl)biphenyl-3-yl)propan-2-ol] cannot be ordered by EC50: under 1000 nM for the first, under 1000 nM for the second.

`CC(C)(O)c1nn(-c2c(Cl)cncc2Cl)c(-c2ccc(-c3cccc(S(C)(=O)=O)c3)s2)c1Cl` [Example 127, 2-(4-chloro-1-(3,5-dichloropyridin-4-yl)-5-(5-(3-(methylsulfonyl)phenyl)thiophen-2-yl)-1H-pyrazol-3-yl)propan-2-ol] and `CC(C)(O)c1cc(-c2ccc(-c3cccc(S(C)(=O)=O)c3)s2)n(-c2c(Cl)cncc2Cl)n1` [Example 126, 2-(1-(3,5-dichloropyridin-4-yl)-5-(5-(3-(methylsulfonyl)phenyl)thiophen-2-yl)-1H-pyrazol-3-yl)propan-2-ol] cannot be ordered by EC50: under 1000 nM for the first, under 1000 nM for the second.

First: Cn1c(-c2cccc(S(C)(=O)=O)c2)ccc1-c1cc(C(C)(C)O)nn1-c1c(Cl)cccc1Cl [Example 1393, 2-(1-(2,6-dichlorophenyl)-5-(1-methyl-5-(3-(methylsulfonyl)phenyl)-1H-pyrrol-2-yl)-1H-pyrazole-3-yl)propan-2-ol]
Second: Cc1cc(-c2cccc(S(C)(=O)=O)c2)ccc1-n1nc(C(C)(C)O)cc1-c1c(Cl)cccc1Cl [Example 122, 2-(5-(2,6-dichlorophenyl)-1-(3-methyl-3′-(methylsulfonyl)biphenyl-4-yl)-1H-pyrazol-3-yl)propan-2-ol]
The EC50 of the first is higher: 1000 to 10000 nM for the first, under 1000 nM for the second.

`CC(C)(O)c1cccc(-c2ccc(-c3cc(C(=O)NCC(F)(F)F)nn3-c3ccccc3Cl)s2)c1` [Example 1276, 1-(2-chlorophenyl)-5-{5-[3-(1-hydroxy-1-methylethyl)phenyl]-2-thienyl}-N-(2,2,2-trifluoroethyl)-1H-pyrazole-3-carboxamide] and `CONC(=O)c1cc(-c2ccc(-c3cccc(S(C)(=O)=O)c3)s2)n(-c2ccccc2Cl)n1` [Example 1163, 1-(2-chlorophenyl)-N-(methyloxy)-5-{5-[3-(methylsulfonyl)phenyl]-2-thienyl}-1H-pyrazole-3-carboxamide] fall in the same range of EC50: 1000 to 10000 nM for the first, 1000 to 10000 nM for the second.

`CS(=O)(=O)c1cccc(-c2ccc(-c3cc(C(F)(F)F)nn3-c3ccccc3S(N)(=O)=O)s2)c1` [Example 1131, 2-[5-{5-[3-(methylsulfonyl)phenyl]-2-thienyl}-3-(trifluoromethyl)-1H-pyrazol-1-yl]benzenesulfonamide] and `COC(C)(C)c1cc(-c2ccc(-c3cccc(S(C)(=O)=O)c3)s2)n(-c2ccccc2C(F)(F)F)n1` [Example 1189, 3-[1-methyl-1-(methyloxy)ethyl]-5-{5-[3-(methylsulfonyl)phenyl]-2-thienyl}-1-[2-(trifluoromethyl)phenyl]-1H-pyrazole] cannot be ordered by EC50: under 1000 nM for the first, under 1000 nM for the second.

`CC(C)(O)c1cc(-c2ccc(-c3cccc(S(C)(=O)=O)c3)s2)n(-c2ncccc2C(F)(F)F)n1` [Example 1178, 2-(5-{5-[3-(methylsulfonyl)phenyl]-2-thienyl}-1-[3-(trifluoromethyl)pyridin-2-yl]-1H-pyrazol-3-yl)propan-2-ol] and `Cc1cccc(C)c1-n1nc(C(C)(C)O)cc1-c1ccc(-c2cccc(S(C)(=O)=O)c2)s1` [Example 1352, 2-[1-(2,6-dimethylphenyl)-5-{5-[3-(methylsulfonyl)phenyl]-2-thienyl}-1H-pyrazol-3-yl]propan-2-ol] cannot be ordered by EC50: under 1000 nM for the first, under 1000 nM for the second.

`Cc1cc(-n2nc(C(C)(C)O)cc2-c2c(Cl)cccc2Cl)ccc1-c1cccc(S(C)(=O)=O)c1` [Example 1417, 2-(5-(2,6-dichlorophenyl)-1-(2-methyl-3′-(methylsulfonyl)biphenyl-4-yl)-1H-pyrazol-3-yl)propan-2-ol] and `CC(C)(O)c1cc(-c2cccc(Cl)c2Cl)n(-c2ccc(-c3cccc(S(C)(=O)=O)c3)cc2)n1` [Example 106, 2-(5-(2,3-dichlorophenyl)-1-(3′-(methylsulfonyl)biphenyl-4-yl)-1H-pyrazol-3-yl)propan-2-ol] fall in the same range of EC50: 1000 to 10000 nM for the first, 1000 to 10000 nM for the second.

Compared with `Cc1cc(-c2cccc(S(C)(=O)=O)c2)ccc1-n1nc(C(C)(C)O)c(Cl)c1-c1c(F)cccc1Cl` [Example 149, 2-(4-chloro-5-(2-chloro-6-fluorophenyl)-1-(3-methyl-3′-(methylsulfonyl)biphenyl-4-yl)-1H-pyrazol-3-yl)propan-2-ol], `CC(C)(O)c1nn(-c2ccccc2Cl)c(-c2ccc(-c3cccc(S(C)(=O)=O)c3)nc2)c1Cl` [Example 132, 2-(4-chloro-1-(2-chlorophenyl)-5-(6-(3-(methylsulfonyl)phenyl)pyridin-3-yl)-1H-pyrazol-3-yl)propan-2-ol] is higher in EC50: under 1000 nM for the first, 1000 to 10000 nM for the second. The first is the more potent here.

`CS(=O)(=O)c1cccc(-c2ccc(-n3nc(C(F)(F)F)cc3-c3ccccc3C(F)(F)F)nc2)c1` [Example 1231, 5-[3-(methylsulfonyl)phenyl]-2-{3-(trifluoromethyl)-5-[2-(trifluoromethyl)phenyl]-1H-pyrazol-1-yl}pyridine] and `CC(=O)c1cc(-c2ccccc2Cl)n(-c2ccc(-c3cccc(S(C)(=O)=O)c3)cc2)n1` [Example 1224, 1-{5-(2-chlorophenyl)-1-[3′-(methylsulfonyl)biphenyl-4-yl]-1H-pyrazol-3-yl}ethanone] cannot be ordered by EC50: under 1000 nM for the first, under 1000 nM for the second.

First: CCCc1ccccc1-n1nc(C(C)(C)O)cc1-c1ccc(-c2cccc(S(C)(=O)=O)c2)s1 [Example 1330, 2-[5-{5-[3-(methylsulfonyl)phenyl]-2-thienyl}-1-(2-propylphenyl)-1H-pyrazol-3-yl]propan-2-ol]
Second: CS(=O)(=O)c1cccc(-c2ccc(-c3cc(C(=O)Nc4cccc(C(F)(F)F)c4)nn3-c3ccccc3Cl)s2)c1 [Example 1133, 1-(2-chlorophenyl)-5-{5-[3-(methylsulfonyl)phenyl]-2-thienyl}-N-[3-(trifluoromethyl)phenyl]-1H-pyrazole-3-carboxamide]
The EC50 of the first is lower: under 1000 nM for the first, 1000 to 10000 nM for the second.
